Results from patent US11160770B2, “Compounds, compositions and methods for treating oxidative DNA damage disorders” (Indiana University Research and Technology Corporation, priority 2011, dated 2021).

Experiments:
[1] = system: cisplatin treated neuronal cells; assay: Trypan blue cell survival following cisplatin treatment; assay type: cell-based, rat; details: E3330 20 μM; cisplatin 0-100 mM; trypan blue on days 11, 12, 13
Text: (§1) EXAMPLE. Assay Methods. Sensory neuronal cultures grown on Lab-Tek microscope chamber slides were processed for immunofluorescence as previously published using a peripherin antibody (1:500) and HA antibody (1:500)[28]. Images were collected in red (peripherin), green (HA), and bright-field modes. A Zeiss LSM offline browser (R4.0: Carl Zeiss Inc.; Thornwood, N.Y.) was used to determine co-localization of peripherin and HA. For trypan blue exculsion, equal volume of 0.4% (w/v) Trypan blue to cell suspension were combined, mixed and scored under phase contrast microscope. Dead cells were those that take up the trypan blue and stain blue, whereas the live cells have yellow nuclei.
Referring to FIG. 2, cells were harvested on day 1. The corresponding siRNA (100 nM) was added on day 3, and removed on day 5. E3330 (20 μM) was dosed on day 7 and remained in the cultures for 2 days. E3330 (20 μM) and/or cisplatin ([…]) are each dosed day 10 with fresh media. Trypan blue assay is performed on days 11, 12, and 13. CGRP release assay is performed on day 11. N=3, *p<0.05.

DRG cells = assay: FACS apoptosis assay in cisplatin treated DRG cells; assay type: cell-based; details: cisplatin 50 μM, E3330 50 μM co-treatment, 3 days
Experimental: EXAMPLE. DRG cells are treated with cisplatin (50 μM), with and without co-treatment with E3330 (50 μM), for 3 days. The cells are evaluated by FACS assay and compared to control.

sensory neurons = assay: Capsaicin-evoked iCGRP release from sensory neurons after ionizing radiation; assay type: cell-based, rat
Experimental: EXAMPLE. Cell Cultures. Neuronal cultures were prepared from adult male (150-175 g) Sprague-Dawley rats (Harlan, Indianapolis, Ind.) as described in the published literature. Briefly, hippocampal cells were dissociated using papain and mechanical agitation and separated by gradient centrifugation. The pellet of cells from a discontinuous gradient of Optiprep in L-15 media was washed then resuspended in 1 mL of growth media consisting of Neurobasal Medium supplemented with 0.5 mM L-glutamine, 2% B-27 Supplement minus AO, 50 mg/mL Penicillin-Streptomycin, and 5 ng/mL of Basic Fibroblast Growth Factor (BFGF). Approximately 60,000 cells were plated onto poly-D-lysine and laminin coated plates and grown for 6-14 days in 5% CO2 at 37° C. Growth medium was changed every other day. For sensory neuronal culture, cells were dissociated using collagenase and mechanical dissociation. Approximately 30,000 DRG cells were plated into each well of 12 well culture plates or onto Lab-Tek chamber slides all precoated with poly-D-lysine and laminin. […]
For release studies, the sensory neuronal cultures were washed once with HEPES buffer consisting of (in mM) 25 HEPES, 135 NaCl, 3.5 KCl, 2.5 CaCl2, 1 MgCl2, 3.3 D-glucose, and 0.1% bovine serum albumin, pH 7.4 and maintained at 37° C. […] After each incubation, the buffer was removed and the amount of CGRP in each sample was measured using radioimmunoassay as previously described. […] Total content was calculated by adding the total amount released in all incubations to the amount measured in the cells. The release data is calculated as fmol released/well/[…] or as a % of the total peptide content in the cells. […]
EXAMPLE. […] For these studies, the initially determined effects of exposing neuronal cultures to single or multiple doses of 10 Gy of IR on the content and release of iCGRP. 24 h after exposing sensory neurons to either one or two once-daily doses of 10 Gy, there was no significant effect on resting or capsaicin-evoked iCGRP release (as measured in fmol released/well of cells/10 min) or on the total content of CGRP in the cultures. […]

[2] = system: sensory neuronal cultures; assay type: cell-based, rat
Experimental: EXAMPLE. Cell Cultures. Neuronal cultures were prepared from adult male (150-175 g) Sprague-Dawley rats (Harlan, Indianapolis, Ind.) as described in the published literature. Briefly, hippocampal cells were dissociated using papain and mechanical agitation and separated by gradient centrifugation. The pellet of cells from a discontinuous gradient of Optiprep in L-15 media was washed then resuspended in 1 mL of growth media consisting of Neurobasal Medium supplemented with 0.5 mM L-glutamine, 2% B-27 Supplement minus AO, 50 mg/mL Penicillin-Streptomycin, and 5 ng/mL of Basic Fibroblast Growth Factor (BFGF). Approximately 60,000 cells were plated onto poly-D-lysine and laminin coated plates and grown for 6-14 days in 5% CO2 at 37° C. Growth medium was changed every other day. For sensory neuronal culture, cells were dissociated using collagenase and mechanical dissociation. Approximately 30,000 DRG cells were plated into each well of 12 well culture plates or onto Lab-Tek chamber slides all precoated with poly-D-lysine and laminin. The sensory neurons were maintained in F-12 media supplemented with 10% horse serum, 2 mM glutamine, 100 μg/mL normocin, 50 μg/mL penicillin, 50 μg/mL streptomycin, 50 μM 5-fluoro-2′-deoxyuridine, 150 μM uridine, and 30 ng/mL NGF in 3% CO2 at 37° C. Growth medium was changed every other day and the cells were used after 11-13 days of culture.
as §1, with “Dead cells were those that take up the trypan blue and stain blue, whereas the live cells have yellow nuclei.” left out
EXAMPLE. […] The mean % of cells surviving 24 h after exposure to IR as measured by trypan blue exclusion was evaluated. […]

## CCCCCCCCC/C(=C\C1=C(C)C(=O)C(OC)=C(OC)C1=O)C(=O)O [Example 28]
[1]
  cell death in cisplatin treated neuronal cells: attenuate cell death
DRG cells
  apoptosis arising from cisplatin treatment: decrease apoptosis
Sensory neurons; 10 μM or 20 μM E3330, 3 doses of 10 Gy, 30 nM capsaicin, 24 h after last dose
  capsaicin-evoked iCGRP release after radiation: completely blocked the effects of radiation on peptide release
Sensory neurons; 10 μM or 20 μM E3330, no radiation, 30 nM capsaicin
  capsaicin-evoked iCGRP release in control cells: did not alter capsaicin-evoked release in control cells
Sensory neurons; 20 μM E3330, APE1 knock-down and 266-177 overexpression, 10 Gy per day for three days
  evoked release of iCGRP: 5.9±0.5 % of total content
[2]; 20 μM E3330, 3 days prior to and throughout 3 days of radiation (10 Gy/day), 24 h after last dose
  cell viability (effect on IR-induced cell death): effectively blocks IR's effects
[2]; male, Sprague-Dawley, rat, 20 μM
  cell viability: 51±3%
[2]; male, Sprague-Dawley, rat, 6 days, 10 μM
  cell viability (% cells surviving, trypan blue exclusion): 81±3%
